Patent US5264443A, “3-aryl oxazolidinone compounds and therapeutic use thereof” (Delalande S.A., priority 1991, dated 1993)

system: 5-hydroxy tryptophan (5-HTP); test: potentialisation of 5-HTP in the rat (anti-depressive activity); assay type: in vivo; conditions: 1 h, oral administration, 5-HTP intraperitoneally one hour after the first treatment, read-out: ED50 (dose producing generalised tremors or stereotypy in 50% of the animals)
Text: The anti-depressive activity was shown by the test of potentialisation of 5-HTP in the rat by the method described by M. JALFRE, B. BUCHER, A. COSTON, G. MOCQUET and R. D. PORSOLT: Arch. Int. Pharmacodyn., (1982), 259, 194-221. A determination on the rat was made of that dose of the product which, orally administered, produces generalised tremors or stereotypy (drumming, head movements) in 50% of the animals (ED50) after intraperitoneal administration of 5-hydroxy tryptophan (5-HTP) one hour after the first treatment. The results obtained in the preceding test, using some compounds according to the invention, are given by way of example in the following table: […]

SMILES	ED50 [mg/kg]
COC[C@H]1CN(c2ccc(OCC[C@@H](OCc3ccncc3)C(F)(F)F)cc2)C(=O)O1 [MD 290057, 3-[4-[4,4,4-trifluoro 3-(4-pyridylmethoxy)(R)butoxy]phenyl]5-methoxymethyl(R)2-oxazolidinone]	0.53
COC[C@H]1CN(c2ccc(OCC[C@@H](OCc3ccc[n+]([O-])c3)C(F)(F)F)cc2)C(=O)O1 [MD 290065, 3-[4-[4,4,4-trifluoro3-(3-N-oxide-pyridylmethoxy)(R)butoxy]phenyl]5-methoxymethyl(R) 2-oxazolidinone]	0.62
COC[C@H]1CN(c2ccc(OCC[C@@H](OCc3cccnc3)C(F)(F)F)cc2)C(=O)O1 [MD 360411 (oxalate), 3-[4-[4,4,4-trifluoro 3-(3-pyridylmethoxy)(R)butoxy]phenyl]5-methoxymethyl(R)2-oxazolidinone]	0.4
